In patent publication US8758816B2, “Compositions comprising azelastine and methods of use thereof” (priority 2004, dated 2014):
Where a name gives a salt, the structure may show the parent alone.

Columns and labels:
[1] = Leaching of azelastine into the polymer of unit dose containers; type: physicochemical
[2] = tested on: patients with seasonal allergic rhinitis (SAR); settings: in vivo
[3] = human, in vivo; cited from earlier work

SMILES: CN1CCCC(n2nc(Cc3ccc(Cl)cc3)c3ccccc3c2=O)CC1 (racemic) [Azelastine, (±)-1-(2H)-phthalazinone, 4-[(4-chlorophenyl)methyl]-2-(hexahydro-1-methyl-1H-azepin-4-yl)-, mono-hydrochloride]
- leaching into the container material ([1]; HDPE unit dose containers, in contrast to lower-density PE): reduce, substantially reduce, or eliminate leaching
- leachability into the container material ([1]; containers of polymers other than HDPE, including polyethylenes of lower density): high degree of undesirable leachability
- Body Weight for Patients of Age 12 to 17, Actual, Mean [2]: 104.7 lb
- Body Weight for Patients of Age 12 to 17, Actual, Median [2]: 104.0 lb
- Body Weight for Patients of Age 12 to 17, Actual, Min-Max [2]: 98-112 lb
- Body Weight for Patients of Age 18 and Beyond, Actual, Mean [2]: 186.2 lb
- Body Weight for Patients of Age 18 and Beyond, Actual, Median [2]: 177.8 lb
- Body Weight for Patients of Age 18 and Beyond, Actual, Min-Max [2]: 102-284 lb
- Body Weight, Actual, Mean [2]: 181.2 lb
- Body Weight, Actual, Median [2]: 174.0 lb
- Body Weight, Actual, Min-Max [2]: 98-284 lb
- Respiration, Actual, Median [2]: 16.0 bpm
- Respiration, Change from baseline, Median [2]: 0.0 bpm
- Respiration, Change from baseline, Min-Max [2]: −4-4 bpm
- bitter taste adverse event [3]: 19.7%
